Results reported in publication PMC8648872, “A host-directed macrocyclic peptide therapeutic for MDR gram negative bacterial infections” (Scientific Reports, 2021).
“Also recorded” adds a separate entry of the source. Where a SMILES comes first, the peptide text is derived from it. Bridges are numbered along the chain shown (N, C = ends).

Assays:
[1] = Single dose pharmacokinetics (plasma and peritoneal fluid); type: in vivo, BALB/c mice; conditions: both sexes, mouse, ip, 1.25 mg/kg single i.p., LC-MS/MS
Description: Single dose PK of MTD12813 was evaluated by quantifying plasma peptide concentrations following 1.25 mg/kg injections administered i.p. to 2 M/2F BALB/c mice. EDTA plasma was prepared from blood collected aseptically by terminal cardiac puncture. MTD12813 plasma concentrations were determined by reverse-phase liquid chromatography (XBridge phenyl 3.5 µm column, Waters) on an Acquity H-Class UPLC (Waters) with tandem electrospray mass spectroscopy on a Xevo TQ-S running MassLynx V4.1 (Waters). Quantitative mass spectroscopy was performed by multiple-reaction monitoring transition 394.04 > 519.35, with area under the curve determined by TargetLynx (Waters).
Cryopreserved Kp-1705 was suspended in PBS to a density of ca. 1 × 10^9 CFU/ml, and incubated with saline or 1.25 µg/ml MTD12813 at room temperature for 1 h. […] In vitro antibacterial activity of MTD12813 (1.25 μg/ml) -treated cells (1 h; 37 °C) was determined by plating saline or peptide treated cells on TSA plates. Growth kinetics of saline and MTD12813-treated cells was determined by diluting samples from the 1 h incubation mixtures 1:40 into TSB and monitoring growth (620 nm) for 5.5 h at 37 °C. Antibacterial activity of MTD12813 in PF was determined by i.p. injection of naïve male BALB/c mice (n = 5 per group) with 1.25 mg/kg of MTD12813 or saline i.p. (10 ml/kg). […]

[2] = test system: Kp-1705; experiment: Antibacterial activity of peptide-containing peritoneal fluid; type: cell-based, K. pneumoniae; conditions: Kp-1705 incubated in PF containing 7.5 µg/ml peptide, 1 h, 37 °C, CFU plating
Description: (§1) Cryopreserved Kp-1705 was suspended in PBS to a density of ca. 1 × 10^9 CFU/ml, and incubated with saline or 1.25 µg/ml MTD12813 at room temperature for 1 h. Mice (n = 26) were then infected i.p. with 500 µl of saline- or MTD12813- pretreated Kp-1705, and a third cohort (n = 12) received 500 µl i.p. of 1.25 µg/ml MTD12813 immediately following infection with saline treated Kp-1705. Five mice from each cohort were euthanized 4 h p.i., and peritoneal lavage was collected for bacterial burden determination and cytospin preparation. In vitro antibacterial activity of MTD12813 (1.25 μg/ml) -treated cells (1 h; 37 °C) was determined by plating saline or peptide treated cells on TSA plates. Growth kinetics of saline and MTD12813-treated cells was determined by diluting samples from the 1 h incubation mixtures 1:40 into TSB and monitoring growth (620 nm) for 5.5 h at 37 °C. Antibacterial activity of MTD12813 in PF was determined by i.p. injection of naïve male BALB/c mice (n = 5 per group) with 1.25 mg/kg of MTD12813 or saline i.p. (10 ml/kg). […] Peritoneal fluid was clarified by centrifugation at 1200×g and an aliquot used to quantify MTD12813 by LC–MS/MS, as described above. Antimicrobial activity was determined by incubating PF (9:1 vol/vol) with Kp-1705 at a final density of 3 × 10^7 CFU/ml. […]

[3] = test system: plasma cytokines; experiment: Plasma cytokines in uninfected (sham infected) mice; type: in vivo, BALB/c mice; conditions: single i.p. 1.25 mg/kg
Description: EDTA-anticoagulated blood was collected aseptically by terminal cardiac puncture and analyzed for complete blood cell count using an Element HT5 hematology analyzer (Heska). Blood plasma and clarified peritoneal lavage were prepared by two-step centrifugation described previously. Plasma cytokine levels were quantified using a mouse-specific MILLIPLEX MAP kit (Millipore Cat# MCYTMAG-70K) as described.
Supplemental Fig. 3. Transient stimulation of cytokines by MTD12813. Sham infected mice were injected i.p with PBS and treated i.p. 1 h later with 1.25 mg/kg MTD12813 (M) or saline (S). Four or 24 h post sham infection, animals were euthanized and plasma samples quantified by multiplex cytokine analysis. P values calculated using ANOVA with Uncorrected Fisher’s LSD comparing saline and […]

[4] = Stability in aqueous media; type: physicochemical; conditions: including acidic solutions as low as pH 2.0; preliminary, data not shown
[5] = test system: Kp-1705; experiment: Challenge with MTD12813-preincubated Kp-1705, survival; type: in vivo, BALB/c mice
Description: as §1

[6] = test system: CRE and non-CRE strains of K. pneumoniae and E. coli; type: cell-based; conditions: standard CLSI assay conditions
Description: Bacterial strains were obtained from American Type Culture Collection. K. pneumoniae strains included BAA-1705 (blaKPC-2, hypermucoid), BAA-2146 (blaNDM-1), BAA-700603 (SHV-18, extended spectrum β-lactamase, ESBL), and BAA-1706 (non-CRE reference strain). E. coli strains included BAA-2340 (blaKPC-2), BAA-2471 (blaNDM-1), and ML35 (non-CRE reference strain).
Minimum inhibitory concentration (MIC) assays were performed ± 50% heat-inactivated mouse serum using Clinical and Laboratory Standards Institute (CLSI; document M07-A9) protocols. Bacteria (5 × 10^5 CFU/ml) were incubated with antibiotics or peptide for 20 h at 37 °C, and bacterial growth was determined by A620 using a SpectraMax M5e plate reader.

CC[C@H](C)[C@@H]1NC(=O)[C@@H]2CSSC[C@H](NC(=O)[C@H]([C@@H](C)CC)NC(=O)[C@@H]3CSSC[C@H](NC1=O)C(=O)N[C@@H](C(C)C)C(=O)NCC(=O)N[C@@H](CCCNC(=N)N)C(=O)NCC(=O)N3)C(=O)N[C@@H](C(C)C)C(=O)N[C@@H](CCCNC(=N)N)C(=O)N[C@@H](CCCNC(=N)N)C(=O)N[C@@H](CCCNC(=N)N)C(=O)N2 [MTD12813] (cyclo(CICVGRGCICVRRR); disulfide 1-10, 3-8)
Cmax ([1]; naïve BALB/c mice (2M/2F per time point), EDTA plasma, read-out: peak plasma concentration (Cmax)): 251 ± 79.8 ng/mL
Tmax ([1]; naïve male and female BALB/c mice (2M/2F per time point), plasma): 15 min
bacterial killing in peritoneal fluid containing peptide [2]: no bacterial killing was observed; also recorded: no bactericidal activity
plasma IL-5, IL-6 and CXCL1 versus vehicle ([3]; 4 h collection point): significantly elevated
plasma IL-5, IL-6 and CXCL1 ([3]; 24 h): returned to baseline
stability in aqueous media [4]: exceedingly stable
survival, equal quantity of peptide given immediately following infection ([5]; 0.5 ml of 1.25 µg/ml i.p. after saline-preincubated Kp-1705, n = 12): no statistically significant protection
survival after challenge with preincubated bacteria ([5]; Kp-1705 preincubated 1 h with 1.25 µg/ml MTD12813, 500 µl i.p., n = 26): protected
MIC against all seven organisms of the panel [6]: 3.13 to 6.25 µg/mL
